From ChEMBL document CHEMBL1140671, “Interaction of O-(undec-10-en)-yl-D-glucose derivatives with the Plasmodium falciparum hexose transporter (PfHT)” (Bioorg Med Chem Lett, 2007)
Activity calls are given as the source filed them. The calls are words filed in the database; no cut-off is given here.

Assays:
Hexose transporter 1 = target: T1, Hexose transporter 1 (Plasmodium falciparum, UniProt O97467); experiment: Inhibition of [3H]glucose uptake at Plasmodium falciparum HT expressed in Xenopus laevis oocytes; type: cell-based, Oocyte
T1 sequence (O97467 whole entry): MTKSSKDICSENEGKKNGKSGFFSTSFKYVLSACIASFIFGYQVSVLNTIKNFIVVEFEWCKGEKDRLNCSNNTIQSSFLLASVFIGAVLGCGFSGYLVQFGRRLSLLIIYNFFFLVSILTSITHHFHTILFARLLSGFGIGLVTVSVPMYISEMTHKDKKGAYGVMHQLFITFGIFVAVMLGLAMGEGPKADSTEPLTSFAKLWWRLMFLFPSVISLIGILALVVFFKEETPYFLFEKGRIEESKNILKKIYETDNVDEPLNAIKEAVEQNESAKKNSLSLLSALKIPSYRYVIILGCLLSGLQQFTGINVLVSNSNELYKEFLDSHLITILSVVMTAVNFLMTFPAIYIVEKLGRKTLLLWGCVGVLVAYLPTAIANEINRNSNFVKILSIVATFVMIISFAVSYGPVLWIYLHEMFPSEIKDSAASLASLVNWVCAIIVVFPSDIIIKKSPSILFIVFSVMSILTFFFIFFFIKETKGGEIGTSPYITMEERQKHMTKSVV

Plasmodium falciparum = experiment: Antiplasmodial activity against Plasmodium falciparum 3D7; type: functional, organism-based
[1] = target: T2, Solute carrier family 2, facilitated glucose transporter member 1 (Homo sapiens, UniProt P11166); experiment: (§1) Inhibition of [3H]glucose uptake at mammalian GLUT1 expressed in Xenopus laevis oocytes; type: cell-based, Oocyte
T2 sequence (P11166 whole entry): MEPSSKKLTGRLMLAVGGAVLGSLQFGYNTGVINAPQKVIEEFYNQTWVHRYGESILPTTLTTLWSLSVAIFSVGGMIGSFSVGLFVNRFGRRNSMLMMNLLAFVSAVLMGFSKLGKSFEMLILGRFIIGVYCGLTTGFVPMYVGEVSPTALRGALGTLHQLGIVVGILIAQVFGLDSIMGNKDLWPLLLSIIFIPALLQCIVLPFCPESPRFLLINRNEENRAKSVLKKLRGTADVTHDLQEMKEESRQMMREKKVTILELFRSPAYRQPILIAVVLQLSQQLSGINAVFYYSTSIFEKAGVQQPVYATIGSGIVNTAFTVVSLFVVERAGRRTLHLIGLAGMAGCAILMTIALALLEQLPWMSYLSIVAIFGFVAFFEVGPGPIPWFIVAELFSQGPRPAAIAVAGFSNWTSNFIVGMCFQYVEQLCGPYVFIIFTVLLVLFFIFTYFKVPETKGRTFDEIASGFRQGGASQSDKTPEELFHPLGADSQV

[2] = target: T3, Solute carrier family 2, facilitated glucose transporter member 1 (Homo sapiens) (UniProt P11166); experiment: as §1; type: cell-based; conditions: Oocyte
T3 sequence (whole entry): T2 sequence (P11166 whole entry)

Row | Ki (Hexose transporter 1) | IC50 (Plasmodium falciparum) | Ki [1] | Activity [2] | Structure (SMILES)
1 | 26 µM | 123 µM | 98 µM |  | C=CCCCCCCCCCO[C@H]1[C@H](O)[C@@H](CO)OC(O)[C@@H]1O (stereo partly drawn)
2 | 2000 µM |  | 400 µM |  | C=CCCCCCCCCCOC[C@H]1OC(O)[C@H](O)[C@@H](O)[C@@H]1O (stereo partly drawn)
3 | > 500 µM |  |  | inactive | C=CCCCCCCCCCO[C@H]1O[C@H](CO)[C@@H](O)[C@H](O)[C@H]1O
4 | > 500 µM |  |  | inactive | C=CCCCCCCCCCO[C@H]1O[C@H]([C@H](O)CO)[C@H](O)[C@H]1O
5 | 2 µM | 8.2 µM |  | inactive | C=CCCCCCCCCCO[C@H]1C(O)O[C@H](CO)[C@@H](O)[C@@H]1O (stereo partly drawn)
6 | > 500 µM |  | > 500 µM |  | C=CCCCCCCCCCO[C@@H]1O[C@H](CO)[C@@H](O)[C@H](O)[C@H]1O
7 | 1500 µM |  |  | inactive | C=CCCCCCCCCCO[C@H](CO)[C@H]1OC(O)[C@H](O)[C@H]1O (stereo partly drawn)
8 | > 500 µM |  |  | inactive | C=CCCCCCCCCCO[C@@H]1O[C@H]([C@H](O)CO)[C@H](O)[C@H]1O
